ChEMBL document CHEMBL5291721, “A preclinical secondary pharmacology resource illuminates target-adverse drug reaction associations of marketed drugs” (Nat Commun, 2023)

Legend:
[1] = molecular target: 5-hydroxytryptamine receptor 2A (Homo sapiens, UniProt P28223); format: functional, cell-based
[2] = molecular target: T1, Muscarinic acetylcholine receptor M2 (Homo sapiens, UniProt P08172); format: functional, cell-based
T1 sequence (P08172 whole entry): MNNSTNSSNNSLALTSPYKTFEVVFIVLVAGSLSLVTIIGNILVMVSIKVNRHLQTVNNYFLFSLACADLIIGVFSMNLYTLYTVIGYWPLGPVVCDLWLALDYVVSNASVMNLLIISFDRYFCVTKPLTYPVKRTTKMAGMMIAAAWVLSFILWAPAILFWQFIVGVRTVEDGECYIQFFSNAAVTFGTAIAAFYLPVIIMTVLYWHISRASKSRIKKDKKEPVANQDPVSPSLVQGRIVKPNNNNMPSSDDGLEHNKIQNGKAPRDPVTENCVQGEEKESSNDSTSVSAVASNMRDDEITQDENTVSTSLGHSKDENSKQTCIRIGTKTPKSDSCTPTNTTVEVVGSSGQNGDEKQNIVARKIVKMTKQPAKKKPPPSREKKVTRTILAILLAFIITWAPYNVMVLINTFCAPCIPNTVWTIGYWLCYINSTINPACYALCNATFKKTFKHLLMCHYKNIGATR

[3] = molecular target: Sodium channel protein type 5 subunit alpha (Homo sapiens, UniProt Q14524); format: functional, cell-based
[4] = molecular target: T2, Peroxisome proliferator-activated receptor gamma (Homo sapiens, UniProt P37231); format: functional
T2 sequence (P37231 whole entry): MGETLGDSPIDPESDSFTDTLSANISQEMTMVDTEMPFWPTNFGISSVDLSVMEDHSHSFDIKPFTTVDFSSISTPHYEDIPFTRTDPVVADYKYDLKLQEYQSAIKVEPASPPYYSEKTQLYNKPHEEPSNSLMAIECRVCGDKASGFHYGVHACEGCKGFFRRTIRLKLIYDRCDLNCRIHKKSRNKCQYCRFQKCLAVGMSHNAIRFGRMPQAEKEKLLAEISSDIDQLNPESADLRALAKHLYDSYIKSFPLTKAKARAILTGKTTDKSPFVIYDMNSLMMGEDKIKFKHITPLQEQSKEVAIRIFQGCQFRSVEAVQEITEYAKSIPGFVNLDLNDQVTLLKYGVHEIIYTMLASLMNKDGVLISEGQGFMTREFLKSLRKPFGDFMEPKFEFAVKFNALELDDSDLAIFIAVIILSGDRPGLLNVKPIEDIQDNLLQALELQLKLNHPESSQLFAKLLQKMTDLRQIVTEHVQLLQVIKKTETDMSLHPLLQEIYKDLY

[5] = molecular target: Cannabinoid receptor 1 (Homo sapiens, UniProt P21554); format: functional, cell-based
[6] = molecular target: 3',5'-cyclic-AMP phosphodiesterase 4A (Homo sapiens, UniProt P27815); format: functional
[7] = molecular target: T3, Alpha-1A adrenergic receptor (Homo sapiens, UniProt P35348); format: functional, cell-based
T3 sequence (P35348 whole entry): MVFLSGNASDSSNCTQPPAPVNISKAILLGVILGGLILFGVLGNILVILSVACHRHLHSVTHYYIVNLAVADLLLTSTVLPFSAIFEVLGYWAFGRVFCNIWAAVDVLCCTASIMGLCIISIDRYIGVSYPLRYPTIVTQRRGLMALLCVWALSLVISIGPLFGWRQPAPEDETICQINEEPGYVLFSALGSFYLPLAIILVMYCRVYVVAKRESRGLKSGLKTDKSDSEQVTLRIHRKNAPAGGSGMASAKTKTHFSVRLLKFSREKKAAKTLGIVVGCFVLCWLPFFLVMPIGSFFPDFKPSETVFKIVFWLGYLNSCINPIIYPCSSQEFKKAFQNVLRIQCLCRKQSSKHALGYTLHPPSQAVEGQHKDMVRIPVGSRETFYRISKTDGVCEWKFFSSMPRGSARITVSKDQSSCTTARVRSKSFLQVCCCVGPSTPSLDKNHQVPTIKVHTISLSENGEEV

[8] = molecular target: T4, Estrogen receptor (Homo sapiens, UniProt P03372)
T4 sequence (P03372 whole entry): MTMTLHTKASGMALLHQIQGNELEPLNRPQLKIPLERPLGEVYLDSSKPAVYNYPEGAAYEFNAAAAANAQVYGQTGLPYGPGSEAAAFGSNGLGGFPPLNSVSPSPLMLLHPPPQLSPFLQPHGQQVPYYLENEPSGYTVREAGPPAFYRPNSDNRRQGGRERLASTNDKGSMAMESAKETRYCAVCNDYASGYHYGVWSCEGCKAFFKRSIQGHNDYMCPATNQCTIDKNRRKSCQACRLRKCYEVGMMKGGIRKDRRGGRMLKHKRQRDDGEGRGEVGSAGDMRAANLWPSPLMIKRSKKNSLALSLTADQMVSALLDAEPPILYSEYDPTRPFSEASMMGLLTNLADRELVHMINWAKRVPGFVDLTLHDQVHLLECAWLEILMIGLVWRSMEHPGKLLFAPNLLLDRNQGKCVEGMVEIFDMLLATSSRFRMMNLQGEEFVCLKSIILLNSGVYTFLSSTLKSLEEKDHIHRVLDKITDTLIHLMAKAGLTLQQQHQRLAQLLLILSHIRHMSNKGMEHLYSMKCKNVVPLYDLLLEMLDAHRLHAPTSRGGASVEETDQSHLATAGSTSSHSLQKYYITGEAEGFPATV

[9] = molecular target: Gamma-aminobutyric acid receptor subunit alpha-1/alpha-2/beta-2/gamma-2 (Homo sapiens, UniProt P14867+P18507+P47869+P47870); format: protein-complex assay
[10] = molecular target: T5, Thromboxane A2 receptor (Homo sapiens, UniProt P21731)
T5 sequence (P21731 whole entry): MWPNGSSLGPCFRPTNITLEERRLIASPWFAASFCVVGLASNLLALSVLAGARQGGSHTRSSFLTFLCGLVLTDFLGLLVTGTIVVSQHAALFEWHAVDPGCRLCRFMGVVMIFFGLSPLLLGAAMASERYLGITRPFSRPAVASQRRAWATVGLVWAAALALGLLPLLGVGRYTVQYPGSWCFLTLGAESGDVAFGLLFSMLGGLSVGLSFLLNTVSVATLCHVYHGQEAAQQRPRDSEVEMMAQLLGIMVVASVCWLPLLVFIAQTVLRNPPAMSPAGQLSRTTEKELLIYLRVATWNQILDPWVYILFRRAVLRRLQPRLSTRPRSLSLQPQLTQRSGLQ

[11] = molecular target: Beta-2 adrenergic receptor (Homo sapiens, UniProt P07550)
[12] = molecular target: T3, Alpha-1A adrenergic receptor
Further: assay procedure not described here.

Sequence of 3',5'-cyclic-AMP phosphodiesterase 4A (P27815 whole entry): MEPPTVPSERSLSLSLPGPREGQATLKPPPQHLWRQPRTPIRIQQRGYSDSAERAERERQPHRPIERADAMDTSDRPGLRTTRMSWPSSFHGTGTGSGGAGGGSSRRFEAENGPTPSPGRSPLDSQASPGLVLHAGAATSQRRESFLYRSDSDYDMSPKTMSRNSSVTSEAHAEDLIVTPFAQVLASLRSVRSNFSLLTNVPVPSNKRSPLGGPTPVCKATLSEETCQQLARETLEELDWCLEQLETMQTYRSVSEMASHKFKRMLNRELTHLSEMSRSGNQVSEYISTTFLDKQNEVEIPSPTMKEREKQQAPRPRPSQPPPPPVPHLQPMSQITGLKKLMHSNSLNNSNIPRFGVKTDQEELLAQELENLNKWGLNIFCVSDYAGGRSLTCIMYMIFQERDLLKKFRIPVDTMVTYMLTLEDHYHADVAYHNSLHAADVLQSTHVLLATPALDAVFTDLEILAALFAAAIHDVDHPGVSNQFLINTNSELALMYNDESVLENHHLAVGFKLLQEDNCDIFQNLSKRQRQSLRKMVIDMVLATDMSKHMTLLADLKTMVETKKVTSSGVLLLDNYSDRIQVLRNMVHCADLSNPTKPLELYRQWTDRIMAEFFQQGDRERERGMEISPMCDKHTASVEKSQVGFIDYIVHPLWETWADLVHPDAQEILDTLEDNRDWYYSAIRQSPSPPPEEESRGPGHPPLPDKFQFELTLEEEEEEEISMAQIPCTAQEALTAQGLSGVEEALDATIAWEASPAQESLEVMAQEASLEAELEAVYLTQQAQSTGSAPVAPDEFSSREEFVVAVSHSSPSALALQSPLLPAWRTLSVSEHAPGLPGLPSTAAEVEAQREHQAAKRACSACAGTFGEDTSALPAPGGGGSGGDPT
Sequence of Cannabinoid receptor 1 (P21554 whole entry): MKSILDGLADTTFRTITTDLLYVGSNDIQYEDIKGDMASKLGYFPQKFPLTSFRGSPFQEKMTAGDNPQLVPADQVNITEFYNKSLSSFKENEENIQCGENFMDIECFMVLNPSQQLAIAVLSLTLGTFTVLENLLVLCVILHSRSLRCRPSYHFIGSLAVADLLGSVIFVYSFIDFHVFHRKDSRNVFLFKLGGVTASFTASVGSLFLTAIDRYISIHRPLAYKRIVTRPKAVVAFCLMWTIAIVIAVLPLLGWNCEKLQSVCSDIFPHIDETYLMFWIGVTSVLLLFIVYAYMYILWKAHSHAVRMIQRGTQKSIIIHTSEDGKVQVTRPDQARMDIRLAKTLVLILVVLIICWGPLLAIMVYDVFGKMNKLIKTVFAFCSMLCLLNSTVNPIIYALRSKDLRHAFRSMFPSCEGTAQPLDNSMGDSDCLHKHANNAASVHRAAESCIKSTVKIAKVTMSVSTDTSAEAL
Sequence of 5-hydroxytryptamine receptor 2A (P28223 whole entry): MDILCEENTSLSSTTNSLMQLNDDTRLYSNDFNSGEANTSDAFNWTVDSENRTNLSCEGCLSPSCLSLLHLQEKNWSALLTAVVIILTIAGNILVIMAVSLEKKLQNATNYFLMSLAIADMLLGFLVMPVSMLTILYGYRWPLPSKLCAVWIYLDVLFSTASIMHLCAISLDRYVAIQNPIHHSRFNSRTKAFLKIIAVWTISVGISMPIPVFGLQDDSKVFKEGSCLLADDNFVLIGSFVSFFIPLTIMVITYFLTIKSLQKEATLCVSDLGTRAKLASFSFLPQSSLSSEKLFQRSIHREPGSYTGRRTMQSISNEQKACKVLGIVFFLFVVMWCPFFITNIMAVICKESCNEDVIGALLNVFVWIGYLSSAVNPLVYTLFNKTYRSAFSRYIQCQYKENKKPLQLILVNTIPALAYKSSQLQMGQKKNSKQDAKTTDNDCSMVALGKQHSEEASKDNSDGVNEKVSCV
Sequence of Sodium channel protein type 5 subunit alpha (Q14524 whole entry): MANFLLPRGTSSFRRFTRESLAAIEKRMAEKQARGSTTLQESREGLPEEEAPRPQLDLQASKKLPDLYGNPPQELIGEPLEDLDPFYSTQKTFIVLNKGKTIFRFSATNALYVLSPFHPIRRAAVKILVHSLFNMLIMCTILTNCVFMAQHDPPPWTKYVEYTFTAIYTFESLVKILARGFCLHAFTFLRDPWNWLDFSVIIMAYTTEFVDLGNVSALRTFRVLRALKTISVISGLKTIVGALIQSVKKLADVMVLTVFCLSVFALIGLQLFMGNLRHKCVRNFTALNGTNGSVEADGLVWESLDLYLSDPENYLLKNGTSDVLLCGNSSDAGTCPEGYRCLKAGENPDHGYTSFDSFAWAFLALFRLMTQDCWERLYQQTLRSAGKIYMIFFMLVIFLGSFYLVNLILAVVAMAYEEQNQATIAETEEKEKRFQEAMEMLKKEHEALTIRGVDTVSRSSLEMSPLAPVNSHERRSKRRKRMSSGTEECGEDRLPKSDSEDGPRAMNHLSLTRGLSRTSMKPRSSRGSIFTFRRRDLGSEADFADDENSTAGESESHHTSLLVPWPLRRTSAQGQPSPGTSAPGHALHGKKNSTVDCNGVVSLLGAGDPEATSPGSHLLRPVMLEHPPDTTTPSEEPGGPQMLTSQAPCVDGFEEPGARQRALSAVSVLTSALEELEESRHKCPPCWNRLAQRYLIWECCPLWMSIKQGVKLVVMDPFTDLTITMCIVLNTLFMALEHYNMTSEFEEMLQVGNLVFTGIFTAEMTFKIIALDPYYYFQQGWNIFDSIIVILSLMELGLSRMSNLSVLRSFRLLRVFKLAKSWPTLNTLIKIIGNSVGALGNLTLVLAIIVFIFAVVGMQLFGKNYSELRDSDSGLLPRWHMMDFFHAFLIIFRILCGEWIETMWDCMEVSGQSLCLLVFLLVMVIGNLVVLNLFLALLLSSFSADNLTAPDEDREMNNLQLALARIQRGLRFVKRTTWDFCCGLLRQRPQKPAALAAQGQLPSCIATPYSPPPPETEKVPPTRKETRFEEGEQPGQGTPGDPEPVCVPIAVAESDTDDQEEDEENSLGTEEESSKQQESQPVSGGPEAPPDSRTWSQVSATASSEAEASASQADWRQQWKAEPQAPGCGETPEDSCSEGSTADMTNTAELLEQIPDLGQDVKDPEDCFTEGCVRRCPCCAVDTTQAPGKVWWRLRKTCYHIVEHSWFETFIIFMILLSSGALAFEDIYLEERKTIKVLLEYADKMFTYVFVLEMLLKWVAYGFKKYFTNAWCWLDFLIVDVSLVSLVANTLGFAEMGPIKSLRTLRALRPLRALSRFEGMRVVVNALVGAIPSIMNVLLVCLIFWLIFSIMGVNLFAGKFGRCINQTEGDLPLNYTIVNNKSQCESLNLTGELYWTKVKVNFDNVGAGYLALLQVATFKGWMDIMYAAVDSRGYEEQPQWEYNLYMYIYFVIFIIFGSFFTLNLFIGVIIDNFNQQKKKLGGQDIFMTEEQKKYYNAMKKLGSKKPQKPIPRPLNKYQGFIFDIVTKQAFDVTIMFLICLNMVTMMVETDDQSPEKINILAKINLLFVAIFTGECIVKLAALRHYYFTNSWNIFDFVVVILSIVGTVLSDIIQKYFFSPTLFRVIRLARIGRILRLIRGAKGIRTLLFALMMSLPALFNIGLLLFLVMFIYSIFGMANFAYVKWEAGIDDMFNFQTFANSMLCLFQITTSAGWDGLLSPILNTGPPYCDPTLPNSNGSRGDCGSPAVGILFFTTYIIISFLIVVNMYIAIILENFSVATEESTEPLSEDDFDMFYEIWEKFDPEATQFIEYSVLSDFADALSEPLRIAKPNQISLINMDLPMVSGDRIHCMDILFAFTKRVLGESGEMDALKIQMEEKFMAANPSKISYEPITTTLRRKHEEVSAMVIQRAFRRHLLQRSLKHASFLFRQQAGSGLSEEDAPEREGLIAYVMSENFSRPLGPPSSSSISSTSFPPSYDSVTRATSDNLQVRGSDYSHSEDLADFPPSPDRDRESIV
Sequence of Beta-2 adrenergic receptor (P07550 whole entry): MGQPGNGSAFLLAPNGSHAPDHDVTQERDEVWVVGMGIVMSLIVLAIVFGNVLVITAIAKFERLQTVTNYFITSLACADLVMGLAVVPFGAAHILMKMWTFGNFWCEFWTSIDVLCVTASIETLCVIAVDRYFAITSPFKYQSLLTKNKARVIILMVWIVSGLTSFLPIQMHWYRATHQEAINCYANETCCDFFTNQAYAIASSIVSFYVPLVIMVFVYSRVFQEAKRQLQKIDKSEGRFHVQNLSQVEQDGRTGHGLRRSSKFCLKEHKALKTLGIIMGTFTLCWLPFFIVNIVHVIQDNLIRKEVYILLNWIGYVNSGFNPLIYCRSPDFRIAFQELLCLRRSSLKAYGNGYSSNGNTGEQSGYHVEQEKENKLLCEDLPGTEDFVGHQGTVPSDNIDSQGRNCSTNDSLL

Row | SMILES | AC50 [1] | AC50 [2] | AC50 [3] | AC50 [4] | AC50 [5] | AC50 [6] | AC50 [7] | AC50 [8] | AC50 [9] | AC50 [10] | AC50 [11] | AC50 [12]
1 | CC(C)(CO)c1cc2cc(NC(=O)C3(c4ccc5c(c4)OC(F)(F)O5)CC3)c(F)cc2n1C[C@@H](O)CO [TEZACAFTOR] | 16 µM | > 30 µM | 42 µM | > 30 µM | > 30 µM | – | – | – | – | – | – | –
2 | CC(C)NC[C@H](O)COc1ccc(O)cc1 [PRENALTEROL] | – | – | – | – | – | > 30 µM | > 30 µM | > 30 µM | > 30 µM | – | – | –
3 | O=P1(N(CCCl)CCCl)NCCCO1 (stereo not given) [CYCLOPHOSPHAMIDE ANHYDROUS] | – | – | – | – | – | > 30 µM | > 30 µM | > 30 µM | > 30 µM | – | – | –
4 | N#Cc1ccnc(N2C(=O)CC[C@H]2C(=O)N(c2cncc(F)c2)[C@H](C(=O)NC2CC(F)(F)C2)c2ccccc2Cl)c1 [IVOSIDENIB] | – | – | > 50 µM | – | – | > 30 µM | > 30 µM | > 30 µM | > 30 µM | – | – | –
5 | CS(=O)(=O)Nc1ccc([N+](=O)[O-])cc1Oc1ccccc1 [NIMESULIDE] | – | > 30 µM | – | – | > 30 µM | > 10 µM | > 30 µM | – | > 30 µM | 27 µM | – | –
6 | O=c1[nH]c2ccccc2n1CCN1CCN(c2cccc(C(F)(F)F)c2)CC1 [FLIBANSERIN] | – | – | – | – | – | > 30 µM | > 30 µM | > 30 µM | > 10 µM | – | – | –
7 | CCOC(=O)[C@H](CCc1ccccc1)N[C@@H](C)C(=O)N1Cc2ccccc2C[C@H]1C(=O)O | – | > 10 µM | > 30 µM | – | > 30 µM | > 30 µM | > 30 µM | > 30 µM | – | > 30 µM | > 10 µM | > 10 µM
8 | O=C(O)[C@H]1/C(=C/CO)O[C@@H]2CC(=O)N21 [CLAVULANIC ACID] | > 30 µM | > 30 µM | – | > 30 µM | > 30 µM | – | – | – | – | – | – | –
9 | Cc1c(C)c2c(c(C)c1O)CCC(C)(COc1ccc(CC3SC(=O)NC3=O)cc1)O2 (stereo not given) [TROGLITAZONE] | – | > 30 µM | – | – | > 30 µM | 4.9 µM | > 30 µM | > 30 µM | > 3 µM | > 30 µM | – | 12.5 µM
10 | N[C@@H](Cc1cc(I)c(Oc2cc(I)c(O)c(I)c2)c(I)c1)C(=O)O [LEVOTHYROXINE] | > 30 µM | > 30 µM | – | > 30 µM | > 30 µM | – | – | – | – | – | – | –
11 | CN(C)CCOC(c1ccc(Cl)cc1)c1ccccn1 (stereo not given) [CARBINOXAMINE] | > 30 µM | > 30 µM | – | > 30 µM | > 30 µM | – | – | – | – | – | – | –
12 | CN1CCN(C(c2ccccc2)c2ccc(Cl)cc2)CC1 (stereo not given) [CHLORCYCLIZINE] | – | – | – | – | – | > 30 µM | > 30 µM | > 30 µM | > 30 µM | – | – | –
13 | O=C(O)[C@H](O)[C@@H](O)[C@H](O)[C@H](O)CO [GLUCONIC ACID] | – | – | – | – | – | 21.4 µM | > 30 µM | – | > 30 µM | – | – | –
14 | CN(C)CCCC1(c2ccc(F)cc2)OCc2cc(C#N)ccc21 (stereo not given) [CITALOPRAM] | – | – | > 30 µM | – | > 30 µM | > 30 µM | – | > 30 µM | – | > 30 µM | > 10 µM | –
